US7544666B2, “NAP derivatives” (Industrial Technology Research Institute, priority 2005, dated 2009)

What was measured:
[1] = Stability in Hanks' balanced salt solution (HBSS); assay type: physicochemical; details: 37° C., relative to initial conc. in HBSS = 100.00
Summary of the method: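 Compounds at 500 μM initial concentration were incubated 4 h at 37 °C in HBSS alone or on the apical side of Caco-2 monolayers (cultured 18–26 days, TEER over 350 Ω×cm^2). Apical and basolateral levels were quantified by reverse-phase HPLC at 210 nm against the initial concentration.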

[2] = tested on: scopolamine-induced amnesia rats; experiment: Morris water maze in scopolamine-induced amnesia rats; assay type: in vivo, rat; details: 0.25 mg/kg subcutaneous, 5 min after scopolamine 1 mg/kg i.p.; FIG. 11
Protocol: Scopolamine-induced amnesia […] were used in combination of Morris water maze, a memory and behavior analysis system, to assess the in vivo effects of the NAP derivative BMEC-NAP0701 and NAP.
Sprague-Dawley male rats with body weight of 220-250 g obtained from the National Laboratory Animal Center, Taiwan, were caged in an air-conditioned housing with a temperature of 23±1° C. and kept on an alternating 12-hour light and 12-hour dark schedule with sufficient feed and water. […]
Morris Water Maze was performed with a water maze device containing a stainless pool with a size of 160 cm in diameter, 50 cm in height, and 15 mm in thickness of the wall and a platform with a size of 11 cm in diameter, and 22 cm in height. […] The swimming time and track were recorded by VEDEOMEX-V video tracing system, video recorder, and monitor (Columbus Instruments) and analyzed by Water Maze Program (Columbus Instruments). […]
Late of the third day: Two to four hours after the third day training, the platform was removed from the pool. The trained rats were separately sent to quadrant I and the swimming track was recorded for 60 sec. The time spent in finding the original platform was also recorded. […]
Early of the fifth day: The platform was placed in the quadrant II and submerged beneath water level about 1 cm. The rats were separately sent to quadrant I and the time spent in finding the platform was recorded. […]

[3] = tested on: PC12 cells; experiment: Neural protection in H2O2/PC12 cell system (MTT); assay type: cell-based; details: 500 μM H2O2-induced PC12 cytotoxicity
Protocol: The neural protection of NAP and the NAP derivatives prepared in EXAMPLE 1 were measured by H2O2/PC12 cell system. PC12 cells (4×10^4 cells) were seeded into a 96-well plate and incubated for 24 hours. NAP and the NAP derivatives prepared in EXAMPLE 1 at different concentration were added into the plate and incubated at 37° C. for 4 hours. Hydrogen peroxide with a concentration of 500 μM was then added to induce cytotoxicity. After 24 hours, supernatants were discarded and MTT [3-(4,5-dimethylthiazol-2-yl)-2,5-diphenyltetrazolium bromide] solution (0.5 mg/ml) was added for 4-hour reaction at 37° C. One hundred and fifty μl of DMSO was added to solve formazan product. Absorbance was measured by Microplate Reader at 570 nm, and cell viability was calculated. […] FIGS. 3 to 8 show the cell protection of the NAP derivatives from H2O2-induced PC12 cytotoxicity.

Conc. after 4-hour in HBSS [1]: 99.21
SMILES: CC[C@H](C)[C@H](NC(=O)[C@H](CO)NC(=O)[C@@H](NC(=O)[C@@H]1CCCN1C(=O)[C@H](C)NC(=O)[C@@H](N)CC(N)=O)C(C)C)C(=O)N1CCC[C@H]1C(=O)N[C@@H](CCC(N)=O)C(=O)O [BMEC-NAP, H-NAPVSIPQ-OH, reference compound]
memory improving effect (time spent in finding the platform vs scopolamine-induced rats) [2]: memory improving effect in vivo
concentration level at which cell viability was increased [3]: picomolar (i.e. 10^−12) level
concentration level of cell protection effect ([3]; 4 h pre-incubation): femtomolar (i.e. 10^−15) level
